Results on five molecules are retold here after patent US8957084B2, “7,8-cyclicmorphinan analogs” (Purdue Pharma L.P., priority 2012, dated 2015).

In general, Ki refers to the dissociation constant of the complex between target and ligand, obtained from inhibition or displacement. A word on the EC50: it is the concentration needed to bring the measured effect to its halfway point. As usually defined, the Emax is the size of the effect at its maximum, as opposed to the concentration needed.

Test [1] addresses T1, μ-opioid receptor (Homo sapiens (Human), UniProt P35372). Briefly: μ-opioid receptor radioligand dose-displacement binding assay ([3H]-diprenorphine). To be noted: [3H]-diprenorphine displacement. Here is the method:
Radioligand dose-displacement binding assays for μ-opioid receptors used 0.3 nM [^3H]-diprenorphine (Perkin Elmer, Shelton, Conn.), with […] membrane protein/well in a final volume of 500 μl binding buffer (10 mM MgCl2, 1 mM EDTA, 5% DMSO, 50 mM HEPES, pH 7.4). Reactions were carried out in the absence or presence of increasing concentrations of unlabeled naloxone. All reactions were conducted in 96-deep well polypropylene plates for 2 hours at room temperature. Binding reactions were terminated by rapid filtration onto 96-well Unifilter GF/C filter plates (Perkin Elmer, Shelton, Conn.), presoaked in 0.5% polyethylenimine using a 96-well tissue harvester (Perkin Elmer, Shelton, Conn.) followed by performing three filtration washes with 500 μl of ice-cold binding buffer. Filter plates were subsequently dried at 50° C. for 2-3 hours. BetaScint scintillation cocktail (Perkin Elmer, Shelton, Conn.) was added (50 μl/well), and plates were counted using a Packard Top-Count for 1 min/well. The data were analyzed using the one-site competition curve fitting functions in GraphPad PRISM™ v. 3.0 or higher (San Diego, Calif.), or an in-house function for one-site competition curve-fitting.
(§1) In TABLE 1, binding affinity of certain Compounds of the Invention to the μ- and κ-opioid receptors was determined as described above.

Test [2] deals with recombinant human kappa opioid receptor (κ) (Homo sapiens (Human), UniProt P41145). Briefly: κ-opioid receptor radioligand dose-displacement binding assay ([3H]-U69,593). To be noted: [3H]-U69,593 displacement. How it is done: (§2) Membranes from HEK-293 cells, CHO or U-2 OS cells expressing the recombinant human kappa opioid receptor (κ) were prepared by lysing cells in ice cold hypotonic buffer (2.5 mM MgCl2, 50 mM HEPES, pH 7.4) (10 mL/10 cm dish) followed by homogenization with a tissue grinder/Teflon pestle. Membranes were collected by centrifugation at 30,000×g for 15 min at 4° C. and pellets were resuspended in hypotonic buffer to a final concentration of 1-3 mg/mL. Protein concentrations were determined using the BioRad protein assay reagent with bovine serum albumen as standard. Aliquots of κ receptor membranes were stored at −80° C.
Radioligand dose displacement assays used 0.4 nM [^3H]-U69,593 (GE Healthcare, Piscataway, N.J.; 40 Ci/mmole) with 15 μg membrane protein (recombinant κ opioid receptor expressed in HEK 293 cells; in-house prep) in a final volume of 200 μl binding buffer (5% DMSO, 50 mM Trizma base, pH 7.4). Non-specific binding was determined in the presence of 10 μM unlabeled naloxone or U69,593. All reactions were performed in 96-well polypropylene plates for 1 hour at a temperature of about 25° C. Binding reactions were terminated by rapid filtration onto 96-well Unifilter GF/C filter plates (Perkin Elmer, Shelton, Conn.) presoaked in 0.5% polyethylenimine (Sigma). Harvesting was performed using a 96-well tissue harvester (Perkin Elmer, Shelton, Conn.) followed by five filtration washes with 200 μl ice-cold binding buffer. Filter plates were subsequently dried at 50° C. for 1-2 hours. Fifty μl/well scintillation cocktail (Perkin Elmer, Shelton, Conn.) was added and plates were counted in a Packard Top-Count for 1 min/well.
as §1

In test [3] the target is T1, μ-opioid receptor. As to the kind of experiment: μ-opioid receptor [35S]GTPγS functional assay, HEK-293 cells. The class given is biochemical. The following applies: for Emax: relative to DAMGO. Here is the method: (§3) [^35S]GTPγS functional assays were conducted using freshly thawed μ-receptor membranes prepared in-house from a cell line expressing recombinant μ opioid receptor in a HEK-293, CHO or U-2 OS cell background, or purchased from a commercial source (Perkin Elmer, Shelton, Conn.; or DiscovRx, Fremont, Calif.). Assay reactions were prepared by sequentially adding the following reagents to binding buffer (100 mM NaCl, 10 mM MgCl2, 20 mM HEPES, pH 7.4) on ice (final concentrations indicated): membrane protein (0.026 mg/mL), saponin ([…]), GDP ([…]) and [^35S]GTPγS (0.20 nM; Perkin Elmer, Shelton, Conn.). The prepared membrane solution (190 μl/well) was transferred to 96-shallow well polypropylene plates containing 10 μl of 20× concentrated stock solutions of the agonist [D-Ala^2, N-methyl-Phe^4 Gly-ol^5]-enkephalin (DAMGO) prepared in dimethyl sulfoxide (DMSO). Plates were incubated for 30 min at about 25° C. with shaking. Reactions were terminated by rapid filtration onto 96-well Unifilter GF/B filter plates (Perkin Elmer, Shelton, Conn.) using a 96-well tissue harvester (Perkin Elmer, Shelton, Conn.) followed by three filtration washes with 200 μl of ice-cold wash buffer (10 mM NaH2PO4, 10 mM Na2HPO4, pH 7.4). Filter plates were subsequently dried at 50° C. for 2-3 hours. BetaScint scintillation cocktail (Perkin Elmer, Shelton, Conn.) was added (50 μl/well) and plates were counted using a Packard Top-Count for 1 min/well. Data were analyzed using the sigmoidal dose-response curve fitting functions in GraphPad PRISM v. 3.0, or an in-house function for non-linear, sigmoidal dose-response curve-fitting.
(§4) μ GTP EC50 is the concentration of a compound providing 50% of the maximal response for the compound at a μ-opioid receptor.
(§5) μ GTP Emax (%) is the maximal effect elicited by a compound relative to the effect elicited by DAMGO, a standard μ agonist. Generally, the μ GTP Emax (%) value measures the efficacy of a compound to treat or prevent pain or other Conditions.
(§6) In TABLE 2, activity response of certain Compounds of the Invention to the μ- and κ-opioid receptors was determined as described above for functional assays using HEK-293 cells.

Test [4] addresses T2, κ opioid receptor (Homo sapiens (Human), UniProt P41145). As to the kind of experiment: κ-opioid receptor [35S]GTPγS functional assay, HEK-293 cells. In kind it is biochemical. The following applies: for Emax: relative to U69,593. Here is the method: as §2
(§7) Functional [^35S]GTPγS binding assays were conducted as follows. κ opioid receptor membrane solution was prepared by sequentially adding final concentrations of 0.026 μg/μl κ membrane protein (in-house), 10 μg/mL saponin, 3 μM GDP and 0.20 nM [^35S]GTPγS to binding buffer (100 mM NaCl, 10 mM MgCl2, 20 mM HEPES, pH 7.4) on ice. The prepared membrane solution (190 μl/well) was transferred to 96-shallow well polypropylene plates containing 10 μl of 20× concentrated stock solutions of agonist prepared in DMSO. Plates were incubated for 30 min at a temperature of about 25° C. with shaking. Reactions were terminated by rapid filtration onto 96-well Unifilter GF/B filter plates (Perkin Elmer, Shelton, Conn.) using a 96-well tissue harvester (Packard) and followed by three filtration washes with 200 μl ice-cold binding buffer (10 mM NaH2PO4, 10 mM Na2HPO4, pH 7.4). Filter plates were subsequently dried at 50° C. for 2-3 hours. Fifty μl/well scintillation cocktail (Perkin Elmer, Shelton, Conn.) was added and plates were counted in a Packard Top-Count for 1 min/well.
(§8) κ GTP EC50 is the concentration of a compound providing 50% of the maximal response for the compound at a κ receptor.
(§9) κ GTP Emax (%) is the maximal effect elicited by a compound relative to the effect elicited by U69,593.
as §6
On the technique in general: GTPγS is a poorly hydrolysed GTP analogue; its binding reports G protein activation.

Test [5] concerns the target T1, μ-opioid receptor. As to the kind of experiment: μ-opioid receptor [35S]GTPγS functional assay, U-2 OS cells. The class given is biochemical. The following applies: for Emax: GTPγS, U-2 OS cells, relative to DAMGO. Here is the method: as §3, §4, §5
(§10) In TABLE 3, activity response of certain Compounds of the Invention to the μ- and κ-opioid receptors was determined as described above for functional assays using U-2 OS cells.

In test [6] the target is T2, κ opioid receptor. As to the kind of experiment: κ-opioid receptor [35S]GTPγS functional assay, U-2 OS cells. The class given is biochemical. The following applies: for Emax: GTPγS, U-2 OS cells, relative to U69,593. How it is done:
as §2, §7, §8, §9, §10

Consider `COc1ccc2c(c1)[C@]13CCN(CC4CC4)[C@H](C2)[C@@H]1C1CC1C(=O)C3` (stereo partly drawn) [Compound 1, (1bR,2R,7bS)-12-(cyclopropylmethyl)-6-methoxy-1,1b,2,3,8,9a-hexahydro-2,7b-(epiminoethano)cyclopropa[a]phenanthren-9(1aH)-one], for which the Ki was 112 ± 26.9 nM in test [1] and 8.87 ± 2.73 nM in test [2]. The EC50 in test [3] stood at 53.6 ± 8.94 nM; in test [4], 136 ± 25.4 nM. Also, the Emax in test [3] (GTPγS, HEK-293 cells) turned out to be 63.6 ± 3.47%; in test [4] (GTPγS, HEK-293 cells), 81 ± 2.27%.
For the molecule `COc1ccc2c(c1)[C@]13CCN(CC4CC4)[C@H](C2)[C@@H]1C1CC1C(O)C3` (stereo partly drawn) [Compound 2, (1bR,2R,7bS)-12-(cyclopropylmethyl)-6-methoxy-1,1a,1b,2,3,8,9,9a-octahydro-2,7b-(epiminoethano)cyclopropa[a]phenanthren-9-ol], the inhibition constant (Ki) in test [2] turned out to be 23.3 ± 6.06 nM. Also, the figures for the EC50 in test [3] and in test [4] were 414 ± 73 nM and 1120 ± 230 nM, respectively. The Emax was 54.3 ± 4.67% in test [3] (GTPγS, HEK-293 cells) and 76.7 ± 3.18% in test [4] (GTPγS, HEK-293 cells).
`C=CCOC1C[C@]23CCN(CC4CC4)[C@H](Cc4ccc(OC)cc42)C3C2CC12` (stereo partly drawn) [Compound 3, (2R,7bS)-9-(allyloxy)-12-(cyclopropylmethyl)-6-methoxy-1,1a,1b,2,3,8,9,9a-octahydro-2,7b-(epiminoethano)cyclopropa[a]phenanthrene]: the Ki in test [1] was 30 ± 2.76 nM; in test [2], 3.04 ± 0.6 nM. Moreover, the EC50 in test [3] was 75.2 ± 9.24 nM; in test [4], 116 ± 27.4 nM; in test [5], 90.7 ± 17 nM; in test [6], 29.5 ± 4.5 nM. Also, the Emax in test [3] (GTPγS, HEK-293 cells) is 84.3 ± 5.81%; in test [4] (GTPγS, HEK-293 cells) it was 66.7 ± 7.88%; in test [5], 52.7 ± 7.54%; in test [6], 105 ± 4.67%.
With `C=C1C[C@@]23CCN(CC4CC4)[C@H](Cc4ccc(OC)cc42)C3C2CC12` (stereo partly drawn) [Compound 4, (2R,7bS)-12-(cyclopropylmethyl)-6-methoxy-9-methylene-1,1a,1b,2,3,8,9,9a-octahydro-2,7b-(epiminoethano)cyclopropa[a]phenanthrene], the figures for the Ki in test [1] and in test [2] were 142 ± 10.8 nM and 2.19 ± 0.6 nM, respectively. In addition, the concentration for a half-maximal effect (EC50) in test [3] was found to be 42.2 ± 3.59 nM; in test [4], 103 ± 36.9 nM; in test [5] it was 83.1 ± 7.77 nM; in test [6], 8.95 ± 1.02 nM. Further, the Emax in test [3] (GTPγS, HEK-293 cells) was 113 ± 3.38%; in test [4] (GTPγS, HEK-293 cells), 106 ± 1.67%; in test [5] it was 66.7 ± 4.81%; in test [6], 102 ± 1.53%.
As for `COc1ccc2c(c1)[C@]13CCN(CC4CC4)[C@H](C2)[C@@H]1[C@H]1C2CCC(CC2)[C@H]1C(=O)C3` [Compound 5, (4aR,4bR,5R,10bS,12aR)-15-(cyclopropylmethyl)-9-methoxy-2,3,4,4a,5,6,11,12a-octahydro-1H-5,10b-(epiminoethano)-1,4-ethanochrysen-12(4bH)-one], the values for the Ki in test [1] and in test [2] were 242 ± 46 nM and 126 ± 21.9 nM, respectively. Moreover, the EC50 in test [3] (GTPγS, HEK-293 cells, read-out: μ EC50) was determined as 216 ± 16.6 nM; in test [4] (GTPγS, HEK-293 cells, read-out: κ EC50) it was 1370 ± 419 nM. The maximum response (Emax) was determined as 33 ± 4.71% in test [3] (GTPγS, HEK-293 cells) and 19.3 ± 0.88% in test [4] (GTPγS, HEK-293 cells).
